Results reported in patent US7053175B1, “Synthetic peptides useful in biological assays for detecting infections caused by group O HIV-1 viruses” (Bio-Rad Pasteur, priority 1997, dated 2006).
No end group written: not given here.

Tested on: serum samples from patients infected with group O HIV-1 retroviruses
Assay: Immunoenzymatic test: Test No. 2 (immunoreactivity with diluted sera)
Type: binding, human
Details: for Number of samples: sera of Table V; for Number of samples / ABSORBANCE (OD): solid phase peptide 2 μg/ml; for ABSORBANCE (OD): cyclized; for immunoreactivity compared with the reference peptides (in words): summary of Tables V and VI
From the text: The serum samples from patients infected with group O HIV-1 retroviruses were obtained by the Yaounde Pasteur Centre in Cameroon and were serotyped group O according to the serological algorithm described in AIDS (1977), 11, pp. 445-453. A genotyped sample (Maryland) is obtained from the United States. These samples were previously diluted in negative human serum at the dilutions given in Table V, in order to have a sufficient volume for the different immunoreactivity tests.
The synthetic peptides used were dissolved in water at a concentration of 1 mg/ml (stock solution). For the solid phase sensitization step (“coating”), the procedure was carried out as described for Example 2.
The serum samples were diluted 1/5 with a skimmed milk solution (citrate buffer supplemented with 0.01% of phenol red, 0.25% of chloroform and 0.25% of Kathon®), deposited in the wells of plates and incubated for 30 min at 40° C.
After washing with a Tris-NaCl buffer solution pH 7.4 containing 0.1% of Tween® 20 and 0.001% of sodium merthiolate, 100 μl of a solution of conjugate consisting of horseradish peroxidase-labelled anti-human IgG and IgM goat antibodies, containing as preservative 0.01% of sodium merthiolate, in solution in a citrate buffer solution supplemented with 30% glycerol and 25% normal foetal calf serum, were added to each well of the plates and then they were incubated for 30 min at 40° C.
After washing with a Tris-NaCl buffer solution pH 7.4 containing 0.1% of Tween® 20 and 0.001% of sodium merthiolate, the colour was developed as described in Example 2.
The relative absorbance (OD) (A490-A620) read in each well is proportional to the immunoreactivity of each peptide. It indicates the ability of each peptide to react with the biological sample with which the test is carried out.
The reactivity of the peptides of the invention, peptides No. 10 (14B), No. 11 (18B), No. 12 (19B), No. 14 (21B), No. 15 (22B), No. 16 (23B) all in cyclized form, was compared with that of three homologous synthetic peptides having, as sequence, a portion of the natural sequence of the envelope (env) of a group O HIV-1 retrovirus. These peptides are two peptides derived from the VAU isolate—the peptide VAU 22 AA and the peptide VAU 35 AA—and the peptide MVP 5180 (designated “MVP 5180” in Table V). The peptides VAU 22 AA and VAU 35 AA (whose structure is indicated in Example 2) and the peptide MVP 5180 comprise an immunodominant epitope of gp41.
All these peptides were used in cyclized form. The sequence of the MVP 5180 peptide is the following:
For each peptide tested, the samples were arranged into four classes (a, b, c and d) corresponding to various levels of relative absorbance read at the wavelengths A492-A620: • for a: OD<0.100, • for b: 0.100<OD<0.500, • for c: 0.500<OD<1.000, • for d: OD>1.000, thus making it possible to evaluate the degree of immunoreactivity of the peptides.

Row | Sequence | Number of samples (CLASS A (a: OD<0.100)) | Number of samples (CLASS B (b: 0.100<OD<0.500)) | Number of samples (CLASS C (c: 0.500<OD<1.000)) | Number of samples (CLASS D (d: OD>1.000)) | ABSORBANCE (OD) (serum 258 OUDI at 1/100) | ABSORBANCE (OD) (serum 625 at 1/50) | ABSORBANCE (OD) (serum 3600 at 1/100) | ABSORBANCE (OD) (serum 3613 at ¼00) | ABSORBANCE (OD) (serum 3653 at 1/10) | ABSORBANCE (OD) (serum 4280 at 1/50) | ABSORBANCE (OD) (serum 6111 at 1/100) | ABSORBANCE (OD) (serum DJOU at 1/100) | ABSORBANCE (OD) (serum DO15 at 1/100) | ABSORBANCE (OD) (serum MBASSI at 1/100) | ABSORBANCE (OD) (serum Maryland at ¼00) | ABSORBANCE (OD) (serum NGO at 1/50) | ABSORBANCE (OD) (serum NJEM at 1/100) | ABSORBANCE (OD) (serum WANG at 1/50) | immunoreactivity compared with the reference peptides (in words)
1 | ALETLLQNQQLLNIWGCRGRLVCYTSVRWNET [PEPTIDE No. 12 (19B)] | 0 | 11 | 2 | 1 | 0.226 | 0.264 | 0.249 | 0.773 | 0.247 | 0.201 | 0.202 | 0.419 | 1.286 | 0.747 | 0.285 | 0.193 | 0.391 | 0.124 | –
2 | ALETLLQNQQLLNSWGCRGRLVCYTSVRWNET [PEPTIDE No. 11 (18B)] | 0 | 9 | 4 | 1 | 0.373 | 0.338 | 0.360 | 0.837 | 0.337 | 0.686 | 0.348 | 0.482 | 0.859 | 1.150 | 0.370 | 0.335 | 0.811 | 0.234 | –
3 | LLNSWGCKGRLVCYTS [PEPTIDE No. 10 (14B)] | 3 | 2 | 5 | 4 | 0.587 | 0.838 | 0.482 | 1.108 | 0.347 | 0.022 | 0.596 | 1.268 | 1.613 | 1.217 | 0.524 | 0.067 | 0.032 | 0.698 | –
4 | LNQQRLLNSWGCKGRLVCYTSV [PEPTIDE No. 14 (21B)] | 1 | 3 | 4 | 6 | 0.764 | 2.045 | 0.716 | 1.508 | 0.072 | 0.286 | 0.850 | 1.998 | 3.357 | 2.134 | 0.734 | 0.157 | 0.277 | 2.397 | most immunoreactive
5 | RALETLLNQQRLLNSWGCKGRLVCYTSV [PEPTIDE No. 15 (22B)] | 0 | 2 | 4 | 8 | 1.184 | 2.122 | 0.801 | 1.627 | 0.380 | 0.689 | 1.207 | 2.088 | 3.693 | 2.010 | 0.844 | 0.315 | 0.939 | 2.680 | most immunoreactive
6 | RLNSWGCKGRLVCYTSV [PEPTIDE No. 16 (23B)] | 2 | 2 | 1 | 9 | 1.692 | 1.791 | 0.933 | 1.679 | 0.406 | 0.033 | 1.009 | 2.166 | 3.038 | 2.683 | 1.229 | 0.110 | 0.025 | 1.290 | most immunoreactive
7 | RLQALETLIQNQQRLNLWGCKGKLICYTSVKWNTS (cysteine pairing not given here) [MVP 5180, reference compound] | 1 | 12 | 1 | 0 | 0.116 | 0.202 | 0.206 | 0.478 | 0.401 | 0.382 | 0.226 | 0.203 | 0.673 | 0.248 | 0.241 | 0.184 | 0.146 | 0.075 | –
